{"source": "patent US20050112573A1", "about": "“Method of detecting toxic substance” (priority 2001, published 2005)", "tested_on": "yeast genes (level of expressed mRNA)", "experiment": "DNA chip analysis of expressed mRNA of yeast genes after 2 h culture with a toxic chemical substance", "type": "cell-based, Saccharomyces cerevisiae S288C", "conditions": "for The level of expressed mRNA in the presence of chemical substance/ (ratio to absence of chemical substance): stress protein genes, DNA chip; for The level of expressed mRNA in the presence of chemical substance/ in its absence, gene YDL078C: yeast gene YDL078C", "procedure": "Yeast (Saccharomyces cerevtisiae S288C (α SUC2mal mel gap2 CUP1)) were cultured at 25° C. on YPD medium (yeast extract 1%, polypepton 2%, glucose 2%). One of toxic chemical substances was added to the cell at logarithmic growth phase, and the cell was further cultured for two hours. Cell was cultured without any chemical substance in the same condition, and was used as control. Concentrations of the chemical substances were defined to inhibit the growth of the yeast but not lead to death.\nAfter the completion of cultivation, the culture was centrifuged to collect the cells. To the cells, sodium acetate buffer (50 mM sodium acetate, 10 mM EDTA, 1% SDS) was added, and the mixture was shaken at 65° C. for five minutes, followed by returning to room temperature, and obtaining the supernatant, which procedure was repeated two times. To the supernatant, ½ amount of a solution of phenol/chloroform was added, and the mixture was centrifuged to give a supernatant, which was added with an equal amount of chloroform, and the mixture was centrifuged to give a supernatant. To the supernatant, an equal amount of isopropanol containing 0.3 M sodium acetate was added, and the mixture was allowed to stand at room temperature for 30 minutes, after which the mixture was centrifuged to give a sediment of the whole RNAs. Seventy % ethanol was added to the sediment, and the mixture was again centrifuged to give a sediment, which was then dried and dissolved in water. mRNA was isolated from the whole RNAs as followings. In view of the fact that a poly A chain is attached to the 3′ terminus of mRNA, a polynucleotide having a poly T structure which was immobilized on the surface of latex beads was used to trap the mRNA, and then the mRNA was washed and eluted with spine column (Oligotex-dT30<Super>mRNA Purification Kit, Takara). Reverse transcription of the mRNA was conducted with a reverse transcriptase (Super Script II Reverse Transcriptase; catalogue No. 18064-014, GibcoBRL) using fluorescence-labeled nucleotides to give cDNAs that were introduced with Cy3-dUTP or Cy5-dUTP during the reverse transcription.\nThe labeled cDNAs were dissolved in TE buffer (10 mM Tris-HCl/1 mM EDTA, pH8.0), and the solution was dropped on the DNA chip containing the whole genes of yeast (DNA Chip Research Inc. Japan) so that the cDNAs were hybridized on the DNA chip at 65° C. for over 12 hours. The fluoresces intensity of the DNA chip was read with a scanner, and the ratio relative to the fluorescence intensity resulting from the absence of chemical substance was estimated as the following, which is shown in Tables 1 to 9: [formula]\nIn the Tables, “Intensity” indicated in the rightmost column is a value of the level of expressed mRNA of each gene in control cells as divided by the average level of the expressions of the whole genes.", "data": [{"compound": "COc1cc(CNC(=O)CCCCC=CC(C)C)ccc1O", "note": "[(12), 8-methyl-N-vanillyl-6-nonenamide]", "values": [{"measurement": "level of expressed mRNA in the presence of chemical substance/in its absence", "setting": "gene YOR344C", "value": 1.3}, {"measurement": "level of expressed mRNA in the presence of chemical substance/in its absence", "setting": "gene YOR347C", "value": 1.2}, {"measurement": "The level of expressed mRNA in the presence of chemical substance/absence: YPL005W", "setting": "gene YPL005W", "value": 0.7}, {"measurement": "level of expressed mRNA in the presence of chemical substance/in its absence", "setting": "gene YPL017C", "value": 1.0}, {"measurement": "The level of expressed mRNA in the presence of chemical substance / the level in the absence of chemical substance, yeast gene YPL107W", "setting": "gene YPL107W, DNA chip fluorescence ratio to control without chemical, 2 hours culture with chemical, growth-inhibiting non-lethal concentration", "value": 0.7}, {"measurement": "The level of expressed mRNA in the presence of chemical substance / the level in the absence of chemical substance, yeast gene YPL138C", "setting": "gene YPL138C, DNA chip fluorescence ratio to control without chemical, 2 hours culture with chemical, growth-inhibiting non-lethal concentration", "value": 0.9}, {"measurement": "The level of expressed mRNA in the presence of chemical substance/absence: YPL150W", "setting": "gene YPL150W", "value": 1.0}, {"measurement": "The level of expressed mRNA in the presence of chemical substance/absence: YPL151C", "setting": "gene YPL151C", "value": 0.8}, {"measurement": "The level of expressed mRNA in the presence of chemical substance/absence: YPL152W", "setting": "gene YPL152W", "value": 0.9}, {"measurement": "The level of expressed mRNA in the presence of chemical substance/absence: YPL168W", "setting": "gene YPL168W", "value": 0.7}, {"measurement": "The level of expressed mRNA in the presence of chemical substance/absence: YPL180W", "setting": "gene YPL180W", "value": 0.8}, {"measurement": "The level of expressed mRNA in the presence of chemical substance/absence: YPL188W", "setting": "gene YPL188W", "value": 0.6}, {"measurement": "The level of expressed mRNA in the presence of chemical substance/absence: YPL221W", "setting": "gene YPL221W", "value": 0.8}, {"measurement": "The level of expressed mRNA in the presence of chemical substance/absence: YPL225W", "setting": "gene YPL225W", "value": 0.7}, {"measurement": "The level of expressed mRNA in the presence of chemical substance/absence: YPL249C", "setting": "gene YPL249C", "value": 0.9}, {"measurement": "The level of expressed mRNA in the presence of chemical substance/absence: YPL260W", "setting": "gene YPL260W", "value": 0.8}, {"measurement": "level of expressed mRNA in the presence of chemical substance/in its absence", "setting": "gene YPL265W", "value": 0.9}, {"measurement": "level of expressed mRNA in the presence of chemical substance/in its absence", "setting": "gene YPR006C", "value": 1.1}, {"measurement": "level of expressed mRNA in the presence of chemical substance/in its absence", "setting": "gene YPR026W", "value": 1.2}, {"measurement": "The level of expressed mRNA in the presence of chemical substance/absence: YPR049C", "setting": "gene YPR049C", "value": 0.9}, {"measurement": "The level of expressed mRNA in the presence of chemical substance/absence: YPR061C", "setting": "gene YPR061C", "value": 0.8}, {"measurement": "The level of expressed mRNA in the presence of chemical substance/absence: YPR093C", "setting": "gene YPR093C", "value": 0.9}, {"measurement": "The level of expressed mRNA in the presence of chemical substance/absence: YPR146C", "setting": "gene YPR146C", "value": 0.8}, {"measurement": "The level of expressed mRNA in the presence of chemical substance/absence: YPR148C", "setting": "gene YPR148C", "value": 1.2}, {"measurement": "The level of expressed mRNA in the presence of chemical substance/absence: YPR150W", "setting": "gene YPR150W", "value": 0.6}, {"measurement": "The level of expressed mRNA in the presence of chemical substance/absence: YPR158W", "setting": "gene YPR158W", "value": 0.6}, {"measurement": "The level of expressed mRNA in the presence of chemical substance/absence: YPR169W", "setting": "gene YPR169W", "value": 0.5}, {"measurement": "The level of expressed mRNA in the presence of chemical substance/absence: YPR172W", "setting": "gene YPR172W", "value": 0.8}, {"measurement": "The level of expressed mRNA in the presence of chemical substance/absence: YPR174C", "setting": "gene YPR174C", "value": 1.1}, {"measurement": "The level of expressed mRNA in the presence of chemical substance/The level of expressed mRNA in the absence of chemical substance", "setting": "yeast gene YAR010C", "value": 1.0}, {"measurement": "The level of expressed mRNA in the presence of chemical substance/The level of expressed mRNA in the absence of chemical substance", "setting": "yeast gene YBL005W-A", "value": 1.6}, {"measurement": "The level of expressed mRNA in the presence of chemical substance/ (ratio to absence), gene YBL038W", "setting": "yeast gene YBL038W, mitochondria-located protein genes, 2 h culture with chemical", "value": 0.7}, {"measurement": "The level of expressed mRNA in the presence of chemical substance/The level of expressed mRNA in the absence of chemical substance", "setting": "yeast gene YBL041W", "value": 1.6}, {"measurement": "The level of expressed mRNA in the presence of chemical substance/The level of expressed mRNA in the absence of chemical substance", "setting": "yeast gene YBL043W", "value": 0.9}, {"measurement": "The level of expressed mRNA in the presence of chemical substance/The level of expressed mRNA in the absence of chemical substance", "setting": "yeast gene YBL078C", "value": 3.1}, {"measurement": "The level of expressed mRNA in the presence of chemical substance/ (ratio to absence of chemical substance)", "setting": "yeast gene YBL093C", "value": 1.1}, {"measurement": "The level of expressed mRNA in the presence of chemical substance/ (in its absence), gene YBR036C", "setting": "yeast gene YBR036C, ratio of DNA chip fluorescence intensity to that without chemical substance", "value": 1.0}, {"measurement": "The level of expressed mRNA in the presence of chemical substance/ (ratio to absence of chemical substance)", "setting": "yeast gene YBR044C", "value": 0.8}, {"measurement": "The level of expressed mRNA in the presence of chemical substance/ (ratio to absence), gene YBR122C", "setting": "yeast gene YBR122C, mitochondria-located protein genes, 2 h culture with chemical", "value": 0.7}, {"measurement": "The level of expressed mRNA in the presence of chemical substance/The level of expressed mRNA in the absence of chemical substance", "setting": "yeast gene YBR214W", "value": 1.2}, {"measurement": "The level of expressed mRNA in the presence of chemical substance/ (ratio to absence), gene YBR251W", "setting": "yeast gene YBR251W, mitochondria-located protein genes, 2 h culture with chemical", "value": 1.1}, {"measurement": "The level of expressed mRNA in the presence of chemical substance/ (in its absence), gene YBR298C", "setting": "yeast gene YBR298C, ratio of DNA chip fluorescence intensity to that without chemical substance", "value": 1.1}, {"measurement": "The level of expressed mRNA in the presence of chemical substance/The level of expressed mRNA in the absence of chemical substance", "setting": "yeast gene YCL020W", "value": 1.5}, {"measurement": "The level of expressed mRNA in the presence of chemical substance/The level of expressed mRNA in the absence of chemical substance", "setting": "yeast gene YCL027W", "value": 0.8}, {"measurement": "The level of expressed mRNA in the presence of chemical substance/The level of expressed mRNA in the absence of chemical substance", "setting": "yeast gene YCR004C", "value": 0.8}, {"measurement": "The level of expressed mRNA in the presence of chemical substance/ (ratio to absence), gene YCR046C", "setting": "yeast gene YCR046C, mitochondria-located protein genes, 2 h culture with chemical", "value": 1.1}, {"measurement": "The level of expressed mRNA in the presence of chemical substance/The level of expressed mRNA in the absence of chemical substance", "setting": "yeast gene YCR071C", "value": 1.1}, {"measurement": "The level of expressed mRNA in the presence of chemical substance/ (ratio to absence), gene YCR083W", "setting": "yeast gene YCR083W, mitochondria-located protein genes, 2 h culture with chemical", "value": 1.1}, {"measurement": "The level of expressed mRNA in the presence of chemical substance/ (ratio to absence of chemical substance)", "setting": "yeast gene YCR083W", "value": 1.1}, {"measurement": "The level of expressed mRNA in the presence of chemical substance/The level of expressed mRNA in the absence of chemical substance", "setting": "yeast gene YCR088W", "value": 1.3}, {"measurement": "The level of expressed mRNA in the presence of chemical substance/The level of expressed mRNA in the absence of chemical substance", "setting": "yeast gene YDL008W", "value": 1.2}, {"measurement": "The level of expressed mRNA in the presence of chemical substance/ in its absence, gene YDL067C", "setting": "yeast gene YDL067C, energy system protein genes, 2 h culture with the chemical, ratio to control without chemical", "value": 1.0}, {"measurement": "The level of expressed mRNA in the presence of chemical substance/ (ratio to absence), gene YDL067C", "setting": "yeast gene YDL067C, mitochondria-located protein genes, 2 h culture with chemical", "value": 1.0}, {"measurement": "The level of expressed mRNA in the presence of chemical substance/ in its absence, gene YDL078C", "setting": "energy system protein genes, 2 h culture with the chemical, ratio to control without chemical", "value": 0.8}, {"measurement": "The level of expressed mRNA in the presence of chemical substance/ in its absence, gene YDL078C", "setting": "ratio of DNA chip fluorescence intensity to that without chemical substance", "value": 0.8}, {"measurement": "The level of expressed mRNA in the presence of chemical substance/ (in its absence), gene YDL215C", "setting": "yeast gene YDL215C, ratio of DNA chip fluorescence intensity to that without chemical substance", "value": 0.8}, {"measurement": "The level of expressed mRNA in the presence of chemical substance/The level of expressed mRNA in the absence of chemical substance", "setting": "yeast gene YDL238C", "value": 0.9}, {"measurement": "The level of expressed mRNA in the presence of chemical substance/The level of expressed mRNA in the absence of chemical substance", "setting": "yeast gene YDR055W", "value": 1.4}]}]}
